# Test results: US20060263304A1, “Method of controlling alcohol intake and reversing alcohol effects” (priority 2005, published 2006)
# Tested on: non-substance dependent individual
# Assay: Case report: Flumazenil nasal spray before business dinners, control of alcohol intake
# Format: in vivo
# From the text: As in the co-pending applications, medication sprays are used to accomplish the above noted tasks. any one of several technologies may be used: • 1) A nasal spray applicator affecting the vein endings in the mucosal membranes of the nasal passage; • 2) A mouth spray affecting the buccal mucosal membrane in the mouth area; • 3) A pulmonary inhaler aerosolization into the lungs; • 4) Any other delivery system that provides direct absorption through mucus membranes directly into the blood stream. For example, the nasal spray may be used by an individual to assist in maintaining control of his or her drinking on a frequent or daily basis because they or their loved ones feel their use of alcohol is excessive. The spray will also act as a behavior trigger to assist in reminding the individual or retraining the individual to mind the frequency, amount or setting of intake of alcohol. In this setting of spray-assisted control of alcohol use there is provided a positive reinforcement of successful moderation, and eventually, the spray assist should no longer be needed. From several hours before, and including even while the individual is already drinking, the user of this nasal spray simply squirts one to three doses into each nostril in order to substantially decrease the total consumption of alcohol at any one drinking session. The duration of the effect will vary from individual to individual. The administration of the spray may be repeated as often as one wishes over the period or course of drinking to achieve the desired results, that is, a reduction in the use of alcohol, whether in total amount or in rapidity of alcohol ingestion. Case Report: A non-substance dependent individual ([…]) used this nasal spray by spraying two squirts of the medication “Flumazenil” into each nostril before business dinners on two separate occasions. Without this medication, their usual pattern was the ingestion of one to two martinis before and at the beginning of the meal, followed by one to two glasses of wine during and after the meal.
compound,measurement,setting,value
CCOC(=O)c1ncn2c1CN(C)C(=O)c1cc(F)ccc1-2 [Flumazenil],effect of the alcohol on their thinking and feeling,"two squirts into each nostril before business dinner, each of two occasions, self-reported",less of an effect on their thinking and feeling than usual
same,actual intake of wine,"two squirts into each nostril before business dinner, each of two occasions, usual pattern without medication one to two glasses of wine",less than one glass of wine
same,actual intake of martini,"two squirts into each nostril before business dinner, each of two occasions, usual pattern without medication one to two martinis",less than one martini
same,interest in the alcoholic beverages,"two squirts into each nostril before business dinners, two separate occasions, one individual",substantially reduced
